Measured values: article PMC8466755, “GPCR Pharmacological Profiling of Aaptamine from the Philippine Sponge Stylissa sp. Extends Its Therapeutic Potential for Noncommunicable Diseases” (Molecules, 2021)
Converted amounts (≈) assume the structure as drawn.

Columns and labels:
[1] = target: delta opioid receptor (δ-OR, OPRD1); design: method as in PMID 27744679; settings: calcium mobilization pathway; read-out: EC50 agonist, delta opioid receptor; cited from earlier work
OPRK1 = OPRK1 (Homo sapiens, UniProt P41145); assay: PathHunter β-arrestin primary screen, antagonist mode (potentiator hit); format: cell-based; settings: control agonist at EC80, negative inhibition = potentiation, read-out: % Activation or inhibition, primary screen
Description: (§1) Aaptamine (20 µM) was profiled in gpcrMAX panel biosensor assays (in agonist and antagonist modes) against a panel of 168 GPCRs. The assay was performed by DiscoverX Corporation (Fremont, CA) using PathHunter β -arrestin enzyme fragment complementation (EFC) technology, in a similar way to that described elsewhere. The PathHunter cell lines were taken from freezer stocks according to standard procedures. A total of 20 µL of cells were seeded into white 384-well plates and incubated at 37 °C for the appropriate time prior to testing.
(§2) For antagonist determination, PathHunter cells were preincubated with aaptamine followed by the addition of an agonist. In this assay format, the standard agonist was added at an EC80 concentration. To the plate that contained the cells, 5 µL of the 5X sample was added and incubated for 30 min at 37 °C or room temperature. After the incubation period, 5 µL of the 6X EC80 agonist in an assay buffer was added to the cells and incubated for additional 90 or 180 min at 37 °C or room temperature.

HTR1E = HTR1E (Homo sapiens, UniProt P28566); assay: as above; format: cell-based; settings: control agonist at EC80, negative inhibition = potentiation, read-out: % Activation or inhibition, primary screen
Description: as §1, §2

CXCR3 = target: T1, CXCR3 (Homo sapiens, UniProt P49682); assay: as above; format: cell-based; settings: control agonist at EC80, negative inhibition = potentiation, read-out: Primary Screen Maximal Response, % Inhibition or Activation
T1 sequence (P49682 1-368): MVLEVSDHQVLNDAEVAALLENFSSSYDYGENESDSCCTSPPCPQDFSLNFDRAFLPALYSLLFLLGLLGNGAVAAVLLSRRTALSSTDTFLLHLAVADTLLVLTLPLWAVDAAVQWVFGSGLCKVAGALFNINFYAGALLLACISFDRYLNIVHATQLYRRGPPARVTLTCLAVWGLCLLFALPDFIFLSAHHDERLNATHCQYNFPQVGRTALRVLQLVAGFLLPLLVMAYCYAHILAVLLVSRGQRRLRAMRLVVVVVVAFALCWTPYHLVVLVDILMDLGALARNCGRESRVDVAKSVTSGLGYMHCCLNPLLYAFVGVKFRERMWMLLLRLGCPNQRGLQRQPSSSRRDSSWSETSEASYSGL
Description: as §1, §2

CCR3 = target: T2, CCR3 (Homo sapiens, UniProt P51677); assay: as above; format: cell-based; settings: control agonist at EC80, negative inhibition = potentiation, read-out: Primary Screen Maximal Response, % Inhibition or Activation
T2 sequence (P51677 1-355): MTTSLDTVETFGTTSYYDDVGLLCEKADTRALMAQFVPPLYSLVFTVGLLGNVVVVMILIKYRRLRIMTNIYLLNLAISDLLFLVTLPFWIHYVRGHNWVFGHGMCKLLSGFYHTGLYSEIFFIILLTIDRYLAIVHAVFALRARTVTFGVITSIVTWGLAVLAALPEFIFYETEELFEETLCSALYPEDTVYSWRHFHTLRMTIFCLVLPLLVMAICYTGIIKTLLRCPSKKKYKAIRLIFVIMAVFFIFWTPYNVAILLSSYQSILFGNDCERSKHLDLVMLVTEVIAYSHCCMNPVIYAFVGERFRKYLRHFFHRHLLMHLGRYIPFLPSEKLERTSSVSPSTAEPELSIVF
Description: as §1, §2

SSTR1 = SSTR1 (Homo sapiens, UniProt P30872); assay: as above; format: cell-based; settings: control agonist at EC80, negative inhibition = potentiation, read-out: % Activation or inhibition, primary screen
Description: as §1, §2

[2] = system: pdr1 Δ pdr3 Δ S. cerevisiae; assay: Yeast growth inhibition assay, double deletion strain; settings: up to 50 µM, 24 h, PDR-attenuated strain
Description: The yeast S. cerevisiae (BY4741) cell culture was prepared by inoculating the microorganism in a 250 mL Erlenmeyer flask containing 50 mL YPD + HEPES medium, followed by incubation at 30 °C for 24–48 h. The assay was performed in a 96-well format. Each well except for the blank contained 100 μL of cell suspension with a final cell density of 5 × 10^4 cells/mL. […] The absorbance was read after a 24 h incubation. […] Nystatin was used as the positive control and DMSO served as the negative control. Each treatment was done in triplicate.

ADRA2A = ADRA2A (Homo sapiens, UniProt P08913); assay: PathHunter β-arrestin assay, antagonist mode; format: cell-based
Description: The assay was performed by DiscoverX Corporation (Fremont, CA) using PathHunter β -arrestin enzyme fragment complementation (EFC) technology, in a similar way to that described elsewhere [35, 36]. The PathHunter cell lines were taken from freezer stocks according to standard procedures. A total of 20 µL of cells were seeded into white 384-well plates and incubated at 37 °C for the appropriate time prior to testing.
The assays were performed at 10-point concentrations using three-fold serial dilutions in duplicate. For all the assay formats, the final assay vehicle concentration was 1%.

Candida tropicalis = system: Candida tropicalis; design: method as in doi:10.1016/S0040-4020(03)01069-X; settings: antifungal; cited from earlier work

Sequence of ADRA2A (P08913 whole entry): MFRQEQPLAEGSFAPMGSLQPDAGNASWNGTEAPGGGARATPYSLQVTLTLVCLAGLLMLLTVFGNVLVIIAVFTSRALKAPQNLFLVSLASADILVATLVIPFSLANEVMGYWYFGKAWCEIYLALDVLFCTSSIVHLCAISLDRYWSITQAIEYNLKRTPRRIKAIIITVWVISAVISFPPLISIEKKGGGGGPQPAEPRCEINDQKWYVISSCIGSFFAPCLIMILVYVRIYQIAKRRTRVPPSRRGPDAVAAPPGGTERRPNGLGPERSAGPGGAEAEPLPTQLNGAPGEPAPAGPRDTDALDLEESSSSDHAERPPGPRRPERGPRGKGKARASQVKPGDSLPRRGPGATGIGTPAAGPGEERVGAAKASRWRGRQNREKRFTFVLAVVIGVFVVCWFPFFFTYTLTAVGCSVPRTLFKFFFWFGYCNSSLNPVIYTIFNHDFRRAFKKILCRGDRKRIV
Sequence of SSTR1 (P30872 whole entry): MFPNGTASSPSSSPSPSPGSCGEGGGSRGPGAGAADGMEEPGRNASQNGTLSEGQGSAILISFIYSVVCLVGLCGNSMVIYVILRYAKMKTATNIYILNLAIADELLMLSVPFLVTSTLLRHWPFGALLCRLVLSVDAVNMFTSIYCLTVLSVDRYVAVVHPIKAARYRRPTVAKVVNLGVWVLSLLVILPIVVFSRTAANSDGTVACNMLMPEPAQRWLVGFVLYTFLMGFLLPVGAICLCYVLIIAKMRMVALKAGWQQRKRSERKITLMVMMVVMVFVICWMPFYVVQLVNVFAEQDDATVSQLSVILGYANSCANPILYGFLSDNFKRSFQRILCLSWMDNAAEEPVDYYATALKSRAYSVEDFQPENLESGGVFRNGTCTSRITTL
Sequence of OPRK1 (P41145 whole entry, the tested form may be a part): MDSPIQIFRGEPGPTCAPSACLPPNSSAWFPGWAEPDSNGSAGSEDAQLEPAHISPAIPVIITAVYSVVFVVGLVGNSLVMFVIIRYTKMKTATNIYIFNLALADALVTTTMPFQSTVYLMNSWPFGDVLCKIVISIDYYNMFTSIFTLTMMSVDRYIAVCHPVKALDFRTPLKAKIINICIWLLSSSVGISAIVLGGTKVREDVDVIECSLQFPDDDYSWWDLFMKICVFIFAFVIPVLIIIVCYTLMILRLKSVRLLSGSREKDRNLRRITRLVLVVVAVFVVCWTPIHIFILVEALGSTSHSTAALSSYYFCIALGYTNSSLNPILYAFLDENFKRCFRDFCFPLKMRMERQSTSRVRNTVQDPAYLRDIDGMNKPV
Sequence of HTR1E (P28566 whole entry): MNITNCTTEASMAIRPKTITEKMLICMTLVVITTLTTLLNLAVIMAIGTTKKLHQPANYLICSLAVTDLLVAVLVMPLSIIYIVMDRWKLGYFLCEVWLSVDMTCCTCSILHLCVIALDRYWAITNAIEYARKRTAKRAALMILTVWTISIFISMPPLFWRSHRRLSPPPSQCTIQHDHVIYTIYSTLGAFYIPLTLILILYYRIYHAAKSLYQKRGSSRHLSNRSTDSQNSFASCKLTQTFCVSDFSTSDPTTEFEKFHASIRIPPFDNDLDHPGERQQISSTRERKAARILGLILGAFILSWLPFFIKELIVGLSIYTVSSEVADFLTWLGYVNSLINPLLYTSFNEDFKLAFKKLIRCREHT

COc1cc2ccnc3c2c(c1OC)NC=C3 [aaptamine]
EC50 [1]: 5.1 µM
inhibition at 20 µM (OPRK1): -46%
inhibition at 20 µM (HTR1E): -47%
Emax at 20 µM (CXCR3): 69%
Emax at 20 µM (CCR3): 49%
inhibition at 20 µM (SSTR1): -46%
growth inhibitory activity [2]: inactive
Emax (ADRA2A; dose-response analysis, read-out: Dose-Response Maximal Response, % Inhibition): 63.4%
IC50 (ADRA2A; dose-response, antagonist mode): 56.1 µM
MIC (Candida tropicalis): 110 µM (≈ 25.1 µg/mL)
